Test results reported in patent US7514408B1, “β-secretase enzyme compositions and methods” (Elan Pharmaceuticals, Inc., priority 1999, dated 2009).
Numbered stars: 1 amine (or outer) side, 2 acyl side, 3 side chain; on linkers, the order of the positions; unused ones are H or OH. Square brackets hold non-standard residues; d marks the D form. Peptide text beside a SMILES is read from it. Sta = CC(C)C[C@H](N)[C@@H](O)CC(=O)O; X1 = CC(C)CC(N[*:1])C(O)C(=O)[*:2]

Molecular target: β-secretase (Homo sapiens, UniProt P56817)
Sequence (P56817 46-501): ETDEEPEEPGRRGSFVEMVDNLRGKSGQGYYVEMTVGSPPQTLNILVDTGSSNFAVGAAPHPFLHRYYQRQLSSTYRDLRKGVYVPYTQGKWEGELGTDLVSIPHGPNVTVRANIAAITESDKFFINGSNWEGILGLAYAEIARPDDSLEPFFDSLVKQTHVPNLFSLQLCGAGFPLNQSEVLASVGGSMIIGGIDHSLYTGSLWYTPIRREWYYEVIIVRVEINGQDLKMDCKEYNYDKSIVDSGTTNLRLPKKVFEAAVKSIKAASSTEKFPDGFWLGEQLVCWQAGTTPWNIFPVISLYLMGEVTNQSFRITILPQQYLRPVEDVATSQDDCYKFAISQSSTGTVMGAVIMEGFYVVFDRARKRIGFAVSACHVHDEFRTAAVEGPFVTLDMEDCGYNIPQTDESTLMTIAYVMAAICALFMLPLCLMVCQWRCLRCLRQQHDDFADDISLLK
Assay: MBP C125 assay of peptide inhibitors
Type: biochemical
Procedure: The substrates for these studies were synthesized using solid support sequential synthesis as described in Example 7. Assays of the inhibitory activity were performed in the MBP C125 assays described in Example 4 and IC50 values were generated for the heptameric inhibitors are reported in Table 9. Preferred inhibitors of the invention are those compounds in Group III, particularly preferred inhibitors are in Group II and the most preferred are the inhibitors of Group I.
MBP-C125 Assay: Two recombinantly-expressed proteins (FIG. 19 and FIG. 20) were used as substrates for β-secretase. The preferred substrate (FIG. 19) was expressed in E. coli as a fusion protein of the last 125 amino acids of APP fused to the carboxy-terminal end of maltose-binding protein (MBP), using commercially available vectors from New England Biolabs. […]
Recombinant proteins were generated with both the wild-type APP sequence (MBP-C125 WT) at the cleavage site ( . . . Val-Lys-Met-Asp-Ala . . . ). […] This amino-terminal fragment can be recognized on Western blots with the same Ab, or, quantitatively, using an anti-MBP capture-biotinylated SW-192 reporter sandwich format, as shown in FIG. 19. […]
Microtiter 96-well plates were coated with purified anti-MBP antibody (@ 5-μg/ml), followed by blocking with human serum albumin. […] Plates were read in a Cytofluor 2350 Fluorescent Measurement System. […]

IC50 (MBP C125 assay, heptamer peptides, read-out: IC50 Group) | inhibitor potency relative to the valine substitution alone (fold more potent than P1' valine substituted peptide) | Compound
1 to 10 µM | – | CSCC[C@H](NC(=O)[C@@H](NC(C)=O)C(C)C)C(=O)NC(CC(C)C)C(O)C(=O)N[C@H](C(=O)N[C@@H](C)C(=O)N[C@@H](CCC(=O)O)C(=O)N[C@@H](Cc1ccccc1)C(=O)O)C(C)C (some centres unmarked) [Example 7P] (Ac-VM[X1]VAEF-OH)
– | about 100 times | NH2-KTEEISEVNVAEF-COOH (H-KTEEISEVN[Sta]VAEF-OH) [P10-P4′sta D→V]
